Conditions: typical approximate values; salt added to the solution

SMILES | cloud point of 1% solution of Neodol 91-8
[Cl-].[Na+] [sodium chloride] | 63-66.9 °C
O=S(=O)([O-])[O-].[Ca+2] [calcium sulfate] | no change

Reference: patent US6794356B2, “Fabric softening composition comprising a malodor controlling agent” (The Procter & Gamble Company, priority 2000, dated 2004)
